Like-named read-outs stand apart in the source and are kept apart here.
How the values were obtained:
Experiment in all cases: Post-emergence efficacy, Method A
Format in all cases: in vivo
[1] = test system: Ipomoea hederacea (IPOHE); conditions: evaluated after 13 days; for pest or weed control at 500 g/ha: Ipomoea hederacea, post-emergence, 312 h
How it was run: (§1)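 Post-emergence spray on 14-day-old glasshouse plants (24/16 °C day/night, 14 h photoperiod, 65% humidity). Test material was taken up in acetone and IF50 emulsifier mix, then diluted with sodium lauryl ether sulphate (0.25% or 1%) plus 1% ammonium sulphate. Damage was rated 13 days later, 100 = total.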

[2] = test system: Amaranthus palmeri (AMAPA); conditions: evaluated after 13 days; for pest or weed control at 500 g/ha: Amaranthus palmeri, post-emergence, 312 h
How it was run: as §1

Eleusine indica (ELEIN) = conditions: evaluated after 13 days; for pest or weed control at 500 g/ha: Eleusine indica, post-emergence, 312 h
How it was run: as §1

Lolium perenne (LOLPE) = conditions: evaluated after 13 days; for pest or weed control at 500 g/ha: Lolium perenne, post-emergence, 312 h
How it was run: as §1

[3] = test system: Euphorbia heterophylla (EPHHL); conditions: evaluated after 13 days; for pest or weed control at 500 g/ha: Euphorbia heterophylla, post-emergence, 312 h
How it was run: as §1

[4] = test system: Echinochloa crus-galli (ECHCG); conditions: evaluated after 13 days; for pest or weed control at 500 g/ha: Echinochloa crus-galli, post-emergence, 312 h
How it was run: as §1

[5] = test system: Chenopodium album (CHEAL); conditions: evaluated after 13 days; for pest or weed control at 500 g/ha: Chenopodium album, post-emergence, 312 h
How it was run: as §1

[6] = test system: Digitaria sanguinalis (DIGSA); conditions: evaluated after 13 days; for pest or weed control at 500 g/ha: Digitaria sanguinalis, post-emergence, 312 h
How it was run: as §1

Setaria faberi (SETFA) = conditions: evaluated after 13 days; for pest or weed control at 500 g/ha: Setaria faberi, post-emergence, 312 h
How it was run: as §1

[7] = Application Rate 500 g/Ha, Method A, read-out: Control of weed species after post-emergence application, IPOHE (100=total damage to plant; 0=no damage to plant)
[8] = Application Rate 500 g/Ha, Method A, read-out: Control of weed species after post-emergence application, AMAPA (100=total damage to plant; 0=no damage to plant)
[9] = Application Rate 500 g/Ha, Method A, read-out: Control of weed species after post-emergence application, ELEIN (100=total damage to plant; 0=no damage to plant)
[10] = Application Rate 500 g/Ha, Method A, read-out: Control of weed species after post-emergence application, LOLPE (100=total damage to plant; 0=no damage to plant)
[11] = Application Rate 500 g/Ha, Method A, read-out: Control of weed species after post-emergence application, EPHHL (100=total damage to plant; 0=no damage to plant)
[12] = Application Rate 500 g/Ha, Method A, read-out: Control of weed species after post-emergence application, ECHCG (100=total damage to plant; 0=no damage to plant)
[13] = Application Rate 500 g/Ha, Method A, read-out: Control of weed species after post-emergence application, CHEAL (100=total damage to plant; 0=no damage to plant)
[14] = Application Rate 500 g/Ha, Method A, read-out: Control of weed species after post-emergence application, DIGSA (100=total damage to plant; 0=no damage to plant)
[15] = Application Rate 500 g/Ha, Method A, read-out: Control of weed species after post-emergence application, SETFA (100=total damage to plant; 0=no damage to plant)
[16] = Application rate 500 g/Ha, 100=total damage to plant, 0=no damage to plant, read-out: Control of weed species after post-emergence application, IPOHE
[17] = Application rate 500 g/Ha, 100=total damage to plant, 0=no damage to plant, read-out: Control of weed species after post-emergence application, AMAPA
[18] = Application rate 500 g/Ha, 100=total damage to plant, 0=no damage to plant, read-out: Control of weed species after post-emergence application, ELEIN
[19] = Application rate 500 g/Ha, 100=total damage to plant, 0=no damage to plant, read-out: Control of weed species after post-emergence application, LOLPE
[20] = Application rate 500 g/Ha, 100=total damage to plant, 0=no damage to plant, read-out: Control of weed species after post-emergence application, EPHHL
[21] = Application rate 500 g/Ha, 100=total damage to plant, 0=no damage to plant, read-out: Control of weed species after post-emergence application, ECHCG
[22] = Application rate 500 g/Ha, 100=total damage to plant, 0=no damage to plant, read-out: Control of weed species after post-emergence application, CHEAL
[23] = Application rate 500 g/Ha, 100=total damage to plant, 0=no damage to plant, read-out: Control of weed species after post-emergence application, DIGSA
[24] = Application rate 500 g/Ha, 100=total damage to plant, 0=no damage to plant, read-out: Control of weed species after post-emergence application, SETFA
[25] = Application Rate 500 g/Ha, Method A

SMILES | pest or weed control at 500 g/ha [1, 16] | pest or weed control at 500 g/ha [2, 17] | pest or weed control at 500 g/ha (Eleusine indica (ELEIN); [18]) | pest or weed control at 500 g/ha (Lolium perenne (LOLPE); [19]) | pest or weed control at 500 g/ha [3, 20] | pest or weed control at 500 g/ha [4, 21] | pest or weed control at 500 g/ha [5, 22] | pest or weed control at 500 g/ha [6, 23] | pest or weed control at 500 g/ha (Setaria faberi (SETFA); [24]) | further results
CC(C)(C[n+]1ccc(-c2ccncn2)cn1)C(=O)O [Compound A167] | – | – | – | – | – | – | – | – | – | pest or weed control at 500 g/ha [1, 7]: 100%; pest or weed control at 500 g/ha [2, 8]: 20%; pest or weed control at 500 g/ha (Eleusine indica (ELEIN); [9]): 80%; pest or weed control at 500 g/ha (Lolium perenne (LOLPE); [10]): 40%; pest or weed control at 500 g/ha [3, 11]: 90%; pest or weed control at 500 g/ha [4, 12]: 60%; pest or weed control at 500 g/ha [5, 13]: 70%; pest or weed control at 500 g/ha [6, 14]: 50%; pest or weed control at 500 g/ha (Setaria faberi (SETFA); [15]): 40%
O=C(O)CC[n+]1ccc(-c2ccccn2)cn1 [Compound A148] | 20% | 100% | 40% | 20% | 60% | 50% | 40% | 50% | 50% | –
Cc1c[n+](CCS(=O)(=O)[O-])ncc1-c1ncccn1 [Compound A87] | 40% | 50% | 60% | 70% | 50% | 70% | 30% | 70% | 70% | –
O=C([O-])CC[n+]1ccc(-c2ccc(F)cn2)cn1 [Compound A71] | 40% | 100% | 30% | 10% | 40% | 30% | 60% | 30% | 30% | –
O=c1[nH]c(-c2cc[n+](CCCS(=O)(=O)[O-])nc2)ncc1Cl [Compound A173] | – | – | – | – | – | – | – | – | – | pest or weed control at 500 g/ha [1, 7]: 20%; pest or weed control at 500 g/ha [2, 8]: 30%; pest or weed control at 500 g/ha (Eleusine indica (ELEIN); [9]): 10%; pest or weed control at 500 g/ha (Lolium perenne (LOLPE); [10]): 10%; pest or weed control at 500 g/ha [3, 11]: 40%; pest or weed control at 500 g/ha [4, 12]: 30%; pest or weed control at 500 g/ha [5, 13]: 50%; pest or weed control at 500 g/ha [6, 14]: 20%; pest or weed control at 500 g/ha (Setaria faberi (SETFA); [15]): 30%
O=C(O)CC[n+]1ccc(-c2ncc(Cl)c(=O)[nH]2)cn1 [Compound A161, 3-[4-(5-chloro-6-oxo-1H-pyrimidin-2-yl)pyridazin-1-ium-1-yl]propanoic acid 2,2,2-trifluoroacetate] | – | – | – | – | – | – | – | – | – | pest or weed control at 500 g/ha [1, 7]: 20%; pest or weed control at 500 g/ha [2, 8]: 30%; pest or weed control at 500 g/ha (Eleusine indica (ELEIN); [9]): 20%; pest or weed control at 500 g/ha (Lolium perenne (LOLPE); [10]): 10%; pest or weed control at 500 g/ha [3, 11]: 50%; pest or weed control at 500 g/ha [4, 12]: 20%; pest or weed control at 500 g/ha [5, 13]: 70%; pest or weed control at 500 g/ha [6, 14]: 20%; pest or weed control at 500 g/ha (Setaria faberi (SETFA); [15]): 10%
O=S(=O)([O-])CC[n+]1ccc(-c2ccnc(C(F)(F)F)n2)cn1 [Compound A108] | 70% | 40% | 60% | 40% | 80% | 40% | 80% | 50% | 60% | –
Nc1nccc(-c2cc[n+](CCC(=O)O)nc2)n1 [Compound A160] | – | – | – | – | – | – | – | – | – | pest or weed control at 500 g/ha [1, 7]: 70%; pest or weed control at 500 g/ha [2, 8]: 100%; pest or weed control at 500 g/ha (Eleusine indica (ELEIN); [9]): 80%; pest or weed control at 500 g/ha (Lolium perenne (LOLPE); [10]): 70%; pest or weed control at 500 g/ha [3, 11]: 90%; pest or weed control at 500 g/ha [4, 12]: 70%; pest or weed control at 500 g/ha [5, 13]: 100%; pest or weed control at 500 g/ha [6, 14]: 70%; pest or weed control at 500 g/ha (Setaria faberi (SETFA); [15]): 90%
Cc1cncc(-c2cc[n+](CCC(=O)O)nc2)n1 [Compound A85] | 30% | 90% | 90% | 70% | 100% | 70% | 90% | 90% | 90% | –
COP(=O)(C[n+]1ccc(-c2ccncn2)cn1)OC.O=S(=O)([O-])C(F)(F)F [Compound A237] | – | – | – | – | – | – | – | – | – | Control of weed species after post-emergence application, IPOHE (100=total damage to plant; 0=no damage to plant) [1, 25]: 50; Control of weed species after post-emergence application, AMAPA (100=total damage to plant; 0=no damage to plant) [2, 25]: 60; Control of weed species after post-emergence application, ELEIN (100=total damage to plant; 0=no damage to plant) (Eleusine indica (ELEIN); [25]): 70; Control of weed species after post-emergence application, LOLPE (100=total damage to plant; 0=no damage to plant) (Lolium perenne (LOLPE); [25]): 10; Control of weed species after post-emergence application, EPHHL (100=total damage to plant; 0=no damage to plant) [3, 25]: 0; Control of weed species after post-emergence application, ECHCG (100=total damage to plant; 0=no damage to plant) [4, 25]: 10; Control of weed species after post-emergence application, CHEAL (100=total damage to plant; 0=no damage to plant) [5, 25]: 10; Control of weed species after post-emergence application, DIGSA (100=total damage to plant; 0=no damage to plant) [6, 25]: 50; Control of weed species after post-emergence application, SETFA (100=total damage to plant; 0=no damage to plant) (Setaria faberi (SETFA); [25]): 20
CCOP(=O)(O)CC[n+]1ccc(-c2ncccn2)cn1 [Compound A113, ethoxy-[2-(4-pyrimidin-2-ylpyridazin-1-ium-1-yl)ethyl]phosphinate] | 60% | 40% | 40% | 10% | 100% | 60% | 90% | 60% | 50% | –
O=S(=O)([O-])CC[n+]1ccc(-c2ncccc2Cl)cn1 [Compound A141] | 30% | 100% | 60% | 30% | 20% | 50% | 60% | 40% | 50% | –
O=S(=O)([O-])CC[n+]1ccc(-c2ccc(F)cn2)cn1 [Compound A72] | 40% | 60% | 30% | 20% | 70% | 40% | 40% | 30% | 40% | –
CC(C)OC(=O)CC[n+]1ccc(-c2ncccn2)cn1 [Compound A81, isopropyl 3-(4-pyrimidin-2-ylpyridazin-1-ium-1-yl)propanoate 2,2,2-trifluoroacetate] | 40% | 100% | 80% | 40% | 100% | 90% | 90% | 100% | 90% | –
